This note sets out measurements from US10125118B2, “Heteroaryl compounds and their use as therapeutic drugs” (Dong-A Socio Holdings Co., Ltd., priority 2015, dated 2018).

In assay [1] the target is human c-MER catalytic domain (Homo sapiens (Human), UniProt Q12866). Description: LanthaScreen TR-FRET kinase assay, c-MER. Particulars: read-out: Mer TK inhibition (IC50); Biochemical IC50, TR-FRET, 10 uM ATP. (In general: TR-FRET usually uses a lanthanide donor and a delayed reading to cut background.)
human c-MER catalytic domain, sequence (Q12866 587-858): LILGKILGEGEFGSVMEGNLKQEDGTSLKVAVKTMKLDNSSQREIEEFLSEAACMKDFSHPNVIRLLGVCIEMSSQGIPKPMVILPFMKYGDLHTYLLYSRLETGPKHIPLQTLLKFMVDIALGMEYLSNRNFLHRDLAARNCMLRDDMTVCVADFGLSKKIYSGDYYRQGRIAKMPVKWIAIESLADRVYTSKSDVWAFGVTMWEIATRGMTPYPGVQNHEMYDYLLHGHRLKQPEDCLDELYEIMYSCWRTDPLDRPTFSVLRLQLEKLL
Assay [2] deals with CD8-MerTK in Ba/F3-CDM cells. In words: In cell MER kinase assay, Ba/F3-CDM cell proliferation without IL-3 (Celltiter-Glo). Particulars: 48 hours compound treatment, read-out: Cell growth inhibition (GI50). In kind it is cell-based, murine. The procedure: To establish an in cell kinase assay for MerTK kinase, the IL-3 dependent Ba/F3 cells of murine lymphoid origin was transfected with CD8-MerTK. […] For a routine cellular assay, Ba/F3-CDM cells were seeded at 2,000 cells per well in 384-well cell culture plate containing DMEM/10% FBS culture media and incubated for 24 hours before addition of compounds pre-diluted in culture media. Following compound treatment, cells were further incubated for 48 hours and the proliferation was measured. To discriminate a Ba/F3 growth inhibition by a specific inhibition of MerTK kinase following compound treatment vs growth inhibition due to a non-specific unintended cytotoxicity of compounds, we routinely carried out control sets of Ba/F3 cells in parallel that grown in IL3-supplemented growth media. In the presence of IL-3, the proliferation of Ba/F3 is no longer dependent on the MerTK activity. Cell growth and proliferation was measured with Celltiter-Glo™ system (Promega, USA) according to the manufacturer's instruction. The half-maximal growth inhibitory concentration (GI50) value was calculated with Prism6.0 software (GraphPad, USA).
In general terms: Cellular ATP, detected with luciferase, serves as a proxy for viable cell number.

Broadly, the IC50 is the concentration that gives 50% inhibition. As a reminder, the GI50 is the concentration at which growth is held to half of that of the control. For `CC1CCN(Cc2ccc(-c3cnc(N)c(C(=O)N[C@H]4CCC[C@@H]4OCc4ccc(-c5ccc(CN6CCN(C)CC6)cc5)cc4)c3)cc2)CC1` [Example 378, 2-amino-N-((1S,2S)-2-((4′-((4-methylpiperazin-1-yl)methyl)-[1,1′-biphenyl]-4-yl)methoxy)cyclopentyl)-5-(4-((4-methylpiperidin-1-yl)methyl)phenyl)-nicotinamide], the half-inhibitory concentration (IC50) in assay [1] was less than 10 nM. The GI50 in assay [2] was less than 100 nM.

Turning to `CCc1cccc(CO[C@H]2CNC[C@@H]2NC(=O)c2cc(-c3cnn(C)c3)cnc2N)c1` [Example 416, 2-amino-N-((3S,4S)-4-((3-ethylbenzyl)oxy)pyrrolidin-3-yl)-5-(1-methyl-1H-pyrazol-4-yl)nicotinamide], the IC50 in assay [1] was less than 10 nM. Moreover, the GI50 in assay [2] was 100 to 500 nM.

In the case of `CC(c1ccc(-c2ccc(CO[C@H]3CCC[C@@H]3NC(=O)c3cc(-c4cnn(C)c4)cnc3N)cc2)cc1)N1C[C@@H](C)N(C)[C@@H](C)C1` (stereo partly drawn) [Example 209, 2-amino-5-(1-methyl-1H-pyrazol-4-yl)-N-((1S,2S)-2-((4′-(1-((3S,5R)-3,4,5-trimethylpiperazin-1-yl)ethyl)-[1,1′-biphenyl]-4-yl)methoxy)-cyclopentyl)nicotinamide], the IC50 in assay [1] was less than 10 nM. The GI50 in assay [2] was less than 100 nM.

Turning to `CN1CCC(n2cc(-c3cnc(N)c(C(=O)N[C@H]4CCC[C@@H]4OCc4ccc(-c5ccc(CN6CCN(C)CC6)cc5)cc4)c3)cn2)CC1` [Example 366, 2-amino-N-((1S,2S)-2-((4′-((4-methylpiperazin-1-yl)methyl)-[1,1′-biphenyl]-4-yl)methoxy)cyclopentyl)-5-(1-(1-methylpiperidin-4-yl)-1H-pyrazol-4-yl)nicotinamide], the IC50 in assay [1] was less than 10 nM. Besides, the GI50 in assay [2] is less than 100 nM.

For `C[C@@H]1CN(Cc2ccc(-c3ccc(CO[C@H]4CCC[C@@H]4NC(=O)c4cc(-c5cnn(C)c5)cnc4N)cc3)cc2)CCN1` [Example 185, 2-amino-5-(1-methyl-1H-pyrazol-4-yl)-N-((1S,2S)-2-((4′-(((R)-3-methylpiperazin-1-yl)methyl)-[1,1′-biphenyl]-4-yl)methoxy)cyclopentyl)nicotinamide], the IC50 in assay [1] was less than 10 nM. Also, the GI50 in assay [2] is 100 to 500 nM.

For the compound `Cn1cc(-c2cnc(N)c(C(=O)N[C@H]3CCC[C@@H]3OCc3ccc(-c4ccc(CN5CCN(C6CC6)CC5)cc4)cc3)c2)cn1` [Example 184, 2-amino-N-((1S,2S)-2-((4′-((4-cyclopropylpiperazin-1-yl)methyl)-[1,1′-biphenyl]-4-yl)methoxy)cyclopentyl)-5-(1-methyl-1H-pyrazol-4-yl)nicotinamide], the IC50 in assay [1] is less than 10 nM. Moreover, the GI50 in assay [2] is less than 100 nM.

Regarding `CC(c1ccc(-c2ccc(CO[C@H]3CCC[C@@H]3NC(=O)c3cc(-c4cnn(C)c4)cnc3N)cc2)cc1)N1CCN(C)CC1` (stereo partly drawn) [Example 208, 2-amino-5-(1-methyl-1H-pyrazol-4-yl)-N-((1S,2S)-2-((4′-(1-(4-methylpiperazin-1-yl)ethyl)-[1,1′-biphenyl]-4-yl)methoxy)cyclopentyl)nicotinamide], in assay [1], the IC50 is less than 10 nM. Moreover, the GI50 in assay [2] was less than 100 nM.

In the case of `CN1CCN(Cc2ccc(-c3ccc(OC[C@H]4CCC[C@@H]4NC(=O)c4cc(-c5cnn(C)c5)cnc4N)cc3)cc2)CC1` [Example 86, 2-amino-5-(1-methyl-1H-pyrazol-4-yl)-N-((1S,2S)-2-(((4′-((4-methylpiperazin-1-yl)methyl)-[1,1′-biphenyl]-4-yl)oxy)methyl)cyclopentyl)nicotinamide], the IC50 in assay [1] is less than 10 nM. The GI50 in assay [2] lay within 100 to 500 nM.

Take `CN1CCN(Cc2ccc(-c3ccc(CO[C@H]4CCC[C@@H]4NC(=O)c4cc(-c5ccc(Cl)c(F)c5)cnc4N)cc3)cc2)CC1` [Example 373, 2-amino-5-(4-chloro-3-fluorophenyl)-N-((1S,2S)-2-((4′-((4-methylpiperazin-1-yl)methyl)-[1,1′-biphenyl]-4-yl)methoxy)cyclopentyl)nicotinamide]: the 50% growth inhibitory concentration (GI50) in assay [2] was in the range of 100 to 500 nM.

For the compound `Cn1cc(-c2cnc(N)c(C(=O)N[C@H]3CCC[C@@H]3OCc3ccccc3-c3ccccc3)c2)cn1` (relative stereo) [Example 66, N-(trans-2-([1,1′-biphenyl]-2-ylmethoxy)cyclopentyl)-2-amino-5-(1-methyl-1H-pyrazol-4-yl)nicotinamide], the IC50 in assay [1] is greater than 1000 nM.

For the compound `Cn1cc(-c2cnc(N)c(C(=O)N[C@H]3CCC[C@@H]3OCc3cccc(Br)c3)c2)cn1` [Example 51, 2-amino-N-((1S,2S)-2-((3-bromobenzyl)oxy)cyclopentyl)-5-(1-methyl-1H-pyrazol-4-yl)nicotinamide], the IC50 in assay [1] was greater than 1000 nM.

On to `CC(C)C[C@H](COCc1ccccc1)NC(=O)c1cc(-c2cnn(C)c2)cnc1N` [Example 112, (R)-2-amino-N-(1-(benzyloxy)-4-methylpentan-2-yl)-5-(1-methyl-1H-pyrazol-4-yl)nicotinamide], for which, in assay [1], the IC50 was greater than 1000 nM.

`Cn1cc(-c2cnc(N)c(C(=O)N[C@H](COCc3ccccc3)Cc3ccccc3)c2)cn1` [Example 117, (S)-2-amino-N-(1-(benzyloxy)-3-phenylpropan-2-yl)-5-(1-methyl-1H-pyrazol-4-yl)nicotinamide]: the concentration for half-maximal inhibition (IC50) in assay [1] is greater than 1000 nM.

For the compound `Cc1c(N)cccc1-c1ccc(CO[C@H]2CCC[C@@H]2NC(=O)c2cc(-c3cnn(C)c3)cnc2N)cc1` [Example 139, 2-amino-N-((1S,2S)-2-((3′-amino-2′-methyl-[1,1′-biphenyl]-4-yl)methoxy)cyclopentyl)-5-(1-methyl-1H-pyrazol-4-yl)nicotinamide], the IC50 in assay [1] is greater than 1000 nM.

Consider `Cn1cc(-c2cnc(N)c(C(=O)N[C@@H](CO)C(=O)OCc3ccccc3)c2)cn1` [Example 128, benzyl (2-amino-5-(1-methyl-1H-pyrazol-4-yl)nicotinoyl)-L-serinate], for which the IC50 in assay [1] is greater than 1000 nM.

Consider `Cn1cc(-c2cnc(N)c(C(=O)N[C@H]3CCC4(OCCO4)[C@@H]3OCc3ccccc3)c2)cn1` [Example 73, 2-amino-N-((6R,7S)-6-(benzyloxy)-1,4-dioxaspiro[4.4]nonan-7-yl)-5-(1-methyl-1H-pyrazol-4-yl)nicotinamide], for which the IC50 in assay [1] was greater than 1000 nM.

In the case of `CN1CCN(Cc2ccc(-c3ccc(CO[C@H]4CCC[C@@H]4NC(=O)c4cccnc4N)cc3)cc2C(F)(F)F)CC1` [Example 207, 2-amino-N-((1S,2S)-2-((4′-((4-methylpiperazin-1-yl)methyl)-3′-(trifluoromethyl)-[1,1′-biphenyl]-4-yl)methoxy)cyclopentyl)nicotinamide], in assay [1], the IC50 is less than 10 nM.

Turning to `Cn1cc(-c2cnc(N)c(C(=O)N[C@@H](COCc3ccccc3)C3CCCCC3)c2)cn1` [Example 113, (R)-2-amino-N-(2-(benzyloxy)-1-cyclohexylethyl)-5-(1-methyl-1H-pyrazol-4-yl)nicotinamide], the IC50 in assay [1] is greater than 1000 nM.

In the case of `CN1CCN(c2ccc(Nc3ccc(C(=O)N[C@H]4CCC[C@@H]4OCc4ccccc4)c(N)n3)cc2)CC1` [Example 458, 2-amino-N-((1S,2S)-2-(benzyloxy)cyclopentyl)-6-((4-(4-methylpiperazin-1-yl)phenyl)amino)nicotinamide], in assay [1], the IC50 was greater than 1000 nM.

Regarding `CN1CCN(Cc2ccc(-c3ccc(CO[C@H]4CCC[C@@H]4NC(=O)c4cc(C5=CCCCC5)cnc4N)cc3)cc2)CC1` [Example 382, 2-amino-5-(cyclohex-1-en-1-yl)-N-((1S,2S)-2-((4′-((4-methylpiperazin-1-yl)methyl)-[1,1′-biphenyl]-4-yl)methoxy)cyclopentyl)nicotinamide], in assay [1], the IC50 was less than 10 nM.

As to `Cn1cc(-c2cnc(N)c(C(=O)N[C@H]3CCC[C@@H]3OCc3ccc(-n4nccn4)cc3)c2)cn1` [Example 62, N-((1S,2S)-2-((4-(2H-1,2,3-triazol-2-yl)benzyl)oxy)cyclopentyl)-2-amino-5-(1-methyl-1H-pyrazol-4-yl)nicotinamide], the IC50 in assay [1] was greater than 1000 nM.

Take `Cn1cc(-c2cnc(N)c(C(=O)N[C@@H](COCc3ccccc3)c3ccccc3)c2)cn1` [Example 116, (R)-2-amino-N-(2-(benzyloxy)-1-phenylethyl)-5-(1-methyl-1H-pyrazol-4-yl)nicotinamide]: the IC50 in assay [1] is greater than 1000 nM.

For the compound `C[C@H](COCc1ccc(Cl)c(Cl)c1)NC(=O)c1cc(-c2cnn(C)c2)cnc1N` [Example 104, (R)-2-amino-N-(1-((3,4-dichlorobenzyl)oxy)propan-2-yl)-5-(1-methyl-1H-pyrazol-4-yl)nicotinamide], the IC50 in assay [1] was greater than 1000 nM.

For the compound `Cn1cc(-c2cnc(N)c(C(=O)N[C@H]3COC[C@@H]3N3CCOCC3)c2)cn1` (relative stereo) [Example 90, 2-amino-5-(1-methyl-1H-pyrazol-4-yl)-N-(trans-4-morpholinotetrahydrofuran-3-yl)nicotinamide], the half-maximal inhibitory concentration (IC50) in assay [1] is greater than 1000 nM.

Turning to `COC(=O)CNC(=O)c1cccc(CO[C@H]2CCC[C@@H]2NC(=O)c2cc(-c3cnn(C)c3)cnc2N)c1` [Example 55, methyl (3-((((1S,2S)-2-(2-amino-5-(1-methyl-1H-pyrazol-4-yl)nicotinamido)cyclopentyl)oxy)methyl)benzoyl)glycinate], the half-maximal inhibitory concentration (IC50) in assay [1] is greater than 1000 nM.
